According to patent US20150087687A1 (priority 2012, published 2015):
Like-named read-outs stand apart in the source and are kept apart here.

Tests used:
[1] = system: human myeloblastic leukemic cells; settings: cited from earlier work
[2] = system: HT-29 colorectal cell lines; settings: cited from earlier work
ERBB3 = ERBB3 (Homo sapiens, UniProt P21860); assay: targeting of kinases (FIG. 4): ERBB3; type: binding
mitochondria = settings: effects on mitochondria; cited from earlier work
primary AML cells = settings: cited from earlier work
[3] = system: HT-29 colorectal xenografts; settings: mouse, in vivo; cited from earlier work
AML NOD/SCID model = settings: cited from earlier work
U937 = settings: AML; cited from earlier work
NB4 = settings: AML; cited from earlier work
HL-60 cells = settings: cited from earlier work
murine cancer models = settings: mouse, in vivo; cited from earlier work
Lewis lung sarcoma = settings: mouse, in vivo; cited from earlier work
HL-60 = settings: AML; cited from earlier work
[4] = cited from earlier work
[5] = rats; cited from earlier work
cytochrome P450 2C8 = cytochrome P450 2C8 (Homo sapiens, UniProt P10632); assay: inhibition of cytochrome P450 2C8; type: in vitro ADME
primary AML = settings: cited from earlier work
[6] = system: hepatic cytochrome P450 (CYP); settings: cited from earlier work
CD11b = settings: promoting myeloid differentiation; cited from earlier work
[7] = cited from earlier work; remark: listed apart in the source
HL-60 myeloid cells = settings: cited from earlier work
VEGF = settings: antiangiogenic effects; cited from earlier work
[8] = system: cell lines and primary cancer cells; settings: cited from earlier work
cytochrome P450 2C19 = cytochrome P450 2C19 (Homo sapiens, UniProt P33261); assay: metabolism by cytochrome P450 2C19; type: in vitro ADME; settings: by oxidation
[9] = system: malignant cell lines, particularly AML cell lines; assay: viability of cancer cell lines (Example 2); type: cell-based; settings: 0.1-100 μM, 24 or 48 hours, FIG. 1-3
Description: Viability at 48 hours is shown by (♦); viability at 24 hours is shown by (▪).

[10] = target: glycogen synthase kinase-3β (GSK-3β) (Homo sapiens, UniProt P49841); settings: concentration at which inhibition is stated; cited from earlier work
[11] = cited from earlier work; remark: listed apart in the source
[12] = system: Walker 256 carcino-sarcoma; settings: in vivo; cited from earlier work
Jurkat cells = settings: inducing phosphorylation of c-Myb; cited from earlier work
AML cell lines = settings: cited from earlier work
Bcl-2 = settings: induces apoptosis; cited from earlier work
HUVEC [13] = settings: cited from earlier work
AML cells = AML cells (DKO insensitive to chemotherapy); cited from earlier work
[14] = rat; cited from earlier work
VCAM-1 = settings: antiangiogenic effects; cited from earlier work
microtubule assembly = settings: cited from earlier work
[15] = system: negative cell cycle regulators p21 and p27; settings: induces cell cycle arrest; cited from earlier work
[16] = system: chronic myelogenous leukemia (CML); settings: cited from earlier work
NEK9 = NEK9 (Homo sapiens, UniProt Q8TD19); assay: targeting of kinases (FIG. 4): NEK9; type: binding
STK25 = STK25 (Homo sapiens, UniProt O00506); assay: targeting of kinases (FIG. 4): STK25; type: binding
[17] = cited from earlier work; remark: listed apart in the source
K562 cells = settings: cited from earlier work
ECV304 [18] = settings: antiangiogenic effects; cited from earlier work
K562 [19] = settings: cited from earlier work
[20] = system: uridine glucuronyltransferases (UGT); assay: metabolism by uridine glucuronyltransferases; type: in vitro ADME; settings: direct conjugation, without initial cytochrome P450 oxidation; more polar metabolites
W256 cells = settings: cited from earlier work
ECV304 [21] = settings: cited from earlier work
K562 [22] = settings: CML; cited from earlier work
cytochrome P450 1A2 [23] = target: T1, cytochrome P450 1A2 (Homo sapiens, UniProt P05177); assay: inhibition of cytochrome P450 1A2; type: in vitro ADME
[24] = cited from earlier work; remark: listed apart in the source
cytochrome P450 1A2 [25] = target: T1, cytochrome P450 1A2; assay: metabolism by cytochrome P450 1A2; type: in vitro ADME; settings: by oxidation
HUVEC [26] = settings: antiangiogenic effects; cited from earlier work

T1 sequence (P05177 whole entry): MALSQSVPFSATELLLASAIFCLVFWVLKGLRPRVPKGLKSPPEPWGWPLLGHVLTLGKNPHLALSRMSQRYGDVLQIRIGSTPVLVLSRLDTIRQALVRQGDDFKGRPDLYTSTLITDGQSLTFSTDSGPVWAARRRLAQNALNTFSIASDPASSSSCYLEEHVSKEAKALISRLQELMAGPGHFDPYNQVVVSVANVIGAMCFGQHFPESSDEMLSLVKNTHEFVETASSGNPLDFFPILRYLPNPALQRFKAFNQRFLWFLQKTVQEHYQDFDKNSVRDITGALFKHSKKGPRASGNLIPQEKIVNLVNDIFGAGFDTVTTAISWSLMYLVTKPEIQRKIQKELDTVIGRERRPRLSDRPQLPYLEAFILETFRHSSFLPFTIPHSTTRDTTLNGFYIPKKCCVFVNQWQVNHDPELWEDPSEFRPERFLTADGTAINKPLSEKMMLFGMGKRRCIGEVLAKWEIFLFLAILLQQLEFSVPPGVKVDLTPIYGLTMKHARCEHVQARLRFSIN
Sequence of cytochrome P450 2C8 (P10632 whole entry): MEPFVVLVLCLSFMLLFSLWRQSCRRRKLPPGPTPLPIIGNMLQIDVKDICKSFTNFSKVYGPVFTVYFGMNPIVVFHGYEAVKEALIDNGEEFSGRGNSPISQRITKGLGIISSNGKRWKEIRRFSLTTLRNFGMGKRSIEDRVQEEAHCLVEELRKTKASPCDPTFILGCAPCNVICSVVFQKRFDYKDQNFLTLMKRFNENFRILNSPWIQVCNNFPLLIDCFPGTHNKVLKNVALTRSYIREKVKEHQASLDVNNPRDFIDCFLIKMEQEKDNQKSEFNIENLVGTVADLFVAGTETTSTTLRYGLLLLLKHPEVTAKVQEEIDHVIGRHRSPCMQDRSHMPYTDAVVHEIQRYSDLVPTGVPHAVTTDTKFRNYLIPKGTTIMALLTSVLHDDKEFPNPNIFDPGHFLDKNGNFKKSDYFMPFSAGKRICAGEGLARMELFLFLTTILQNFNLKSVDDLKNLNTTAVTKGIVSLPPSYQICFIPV
Sequence of NEK9 (Q8TD19 whole entry, species assumed): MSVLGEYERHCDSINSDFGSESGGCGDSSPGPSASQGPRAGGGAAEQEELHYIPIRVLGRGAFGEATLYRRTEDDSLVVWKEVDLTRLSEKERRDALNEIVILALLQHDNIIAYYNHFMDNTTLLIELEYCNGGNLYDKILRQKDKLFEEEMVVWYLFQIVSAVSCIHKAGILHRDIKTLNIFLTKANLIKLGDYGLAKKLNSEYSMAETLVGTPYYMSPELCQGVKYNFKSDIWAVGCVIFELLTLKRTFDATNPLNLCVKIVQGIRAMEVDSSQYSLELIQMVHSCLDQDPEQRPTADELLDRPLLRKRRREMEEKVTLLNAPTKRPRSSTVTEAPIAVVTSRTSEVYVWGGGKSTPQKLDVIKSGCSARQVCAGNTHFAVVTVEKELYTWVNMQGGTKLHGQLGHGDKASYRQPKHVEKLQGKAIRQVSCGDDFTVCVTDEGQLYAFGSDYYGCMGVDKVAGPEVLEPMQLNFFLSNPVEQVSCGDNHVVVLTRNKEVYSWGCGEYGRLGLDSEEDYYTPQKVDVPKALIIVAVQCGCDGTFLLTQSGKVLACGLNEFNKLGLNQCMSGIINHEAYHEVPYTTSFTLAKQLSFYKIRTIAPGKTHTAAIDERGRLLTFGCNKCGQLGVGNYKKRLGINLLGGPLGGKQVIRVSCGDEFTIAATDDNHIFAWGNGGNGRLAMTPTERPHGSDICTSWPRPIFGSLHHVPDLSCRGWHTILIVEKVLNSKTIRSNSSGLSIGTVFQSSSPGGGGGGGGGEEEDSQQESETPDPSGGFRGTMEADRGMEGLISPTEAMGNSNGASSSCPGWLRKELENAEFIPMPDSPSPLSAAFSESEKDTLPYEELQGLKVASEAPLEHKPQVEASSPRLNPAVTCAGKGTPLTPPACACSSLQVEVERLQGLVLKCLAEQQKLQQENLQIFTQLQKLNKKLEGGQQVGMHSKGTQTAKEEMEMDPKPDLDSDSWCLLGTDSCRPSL
Sequence of STK25 (O00506 whole entry, species assumed): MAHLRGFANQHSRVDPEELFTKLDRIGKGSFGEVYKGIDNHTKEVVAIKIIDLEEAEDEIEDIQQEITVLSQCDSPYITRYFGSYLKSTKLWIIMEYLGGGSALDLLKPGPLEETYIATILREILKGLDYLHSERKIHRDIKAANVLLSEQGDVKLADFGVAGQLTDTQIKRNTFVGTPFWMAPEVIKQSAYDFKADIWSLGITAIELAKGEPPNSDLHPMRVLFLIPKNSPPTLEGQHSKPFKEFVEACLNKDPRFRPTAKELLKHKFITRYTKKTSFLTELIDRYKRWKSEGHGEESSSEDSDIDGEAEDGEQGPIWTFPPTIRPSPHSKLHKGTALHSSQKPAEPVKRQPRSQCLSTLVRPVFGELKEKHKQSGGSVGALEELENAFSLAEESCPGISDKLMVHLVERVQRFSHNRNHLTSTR
Sequence of glycogen synthase kinase-3β (GSK-3β) (P49841 whole entry, species assumed): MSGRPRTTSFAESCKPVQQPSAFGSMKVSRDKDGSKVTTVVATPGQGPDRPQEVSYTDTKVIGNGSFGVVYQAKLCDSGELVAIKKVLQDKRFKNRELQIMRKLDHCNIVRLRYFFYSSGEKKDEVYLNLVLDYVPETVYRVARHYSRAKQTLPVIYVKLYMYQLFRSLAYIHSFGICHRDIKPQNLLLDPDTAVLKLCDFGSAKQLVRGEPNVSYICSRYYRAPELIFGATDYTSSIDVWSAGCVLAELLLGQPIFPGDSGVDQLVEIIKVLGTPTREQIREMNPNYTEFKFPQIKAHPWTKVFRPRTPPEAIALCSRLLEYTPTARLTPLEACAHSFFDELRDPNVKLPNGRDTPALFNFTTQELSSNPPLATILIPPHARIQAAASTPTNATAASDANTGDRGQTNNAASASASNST
Sequence of cytochrome P450 2C19 (P33261 whole entry): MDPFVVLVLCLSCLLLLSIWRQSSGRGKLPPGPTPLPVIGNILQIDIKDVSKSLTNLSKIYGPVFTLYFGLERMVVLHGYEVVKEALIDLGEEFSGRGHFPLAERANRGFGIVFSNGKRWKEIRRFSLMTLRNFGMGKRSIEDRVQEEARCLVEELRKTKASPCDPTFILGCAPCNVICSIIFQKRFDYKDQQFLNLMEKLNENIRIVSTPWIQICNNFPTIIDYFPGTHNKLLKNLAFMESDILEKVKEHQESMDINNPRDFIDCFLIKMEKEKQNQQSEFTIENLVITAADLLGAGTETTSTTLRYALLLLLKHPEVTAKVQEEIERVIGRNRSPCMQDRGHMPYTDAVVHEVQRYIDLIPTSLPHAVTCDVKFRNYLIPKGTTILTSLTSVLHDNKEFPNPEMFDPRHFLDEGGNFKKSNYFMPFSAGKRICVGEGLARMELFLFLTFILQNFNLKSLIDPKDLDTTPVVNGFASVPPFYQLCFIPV
Sequence of ERBB3 (P21860 20-1342, species assumed): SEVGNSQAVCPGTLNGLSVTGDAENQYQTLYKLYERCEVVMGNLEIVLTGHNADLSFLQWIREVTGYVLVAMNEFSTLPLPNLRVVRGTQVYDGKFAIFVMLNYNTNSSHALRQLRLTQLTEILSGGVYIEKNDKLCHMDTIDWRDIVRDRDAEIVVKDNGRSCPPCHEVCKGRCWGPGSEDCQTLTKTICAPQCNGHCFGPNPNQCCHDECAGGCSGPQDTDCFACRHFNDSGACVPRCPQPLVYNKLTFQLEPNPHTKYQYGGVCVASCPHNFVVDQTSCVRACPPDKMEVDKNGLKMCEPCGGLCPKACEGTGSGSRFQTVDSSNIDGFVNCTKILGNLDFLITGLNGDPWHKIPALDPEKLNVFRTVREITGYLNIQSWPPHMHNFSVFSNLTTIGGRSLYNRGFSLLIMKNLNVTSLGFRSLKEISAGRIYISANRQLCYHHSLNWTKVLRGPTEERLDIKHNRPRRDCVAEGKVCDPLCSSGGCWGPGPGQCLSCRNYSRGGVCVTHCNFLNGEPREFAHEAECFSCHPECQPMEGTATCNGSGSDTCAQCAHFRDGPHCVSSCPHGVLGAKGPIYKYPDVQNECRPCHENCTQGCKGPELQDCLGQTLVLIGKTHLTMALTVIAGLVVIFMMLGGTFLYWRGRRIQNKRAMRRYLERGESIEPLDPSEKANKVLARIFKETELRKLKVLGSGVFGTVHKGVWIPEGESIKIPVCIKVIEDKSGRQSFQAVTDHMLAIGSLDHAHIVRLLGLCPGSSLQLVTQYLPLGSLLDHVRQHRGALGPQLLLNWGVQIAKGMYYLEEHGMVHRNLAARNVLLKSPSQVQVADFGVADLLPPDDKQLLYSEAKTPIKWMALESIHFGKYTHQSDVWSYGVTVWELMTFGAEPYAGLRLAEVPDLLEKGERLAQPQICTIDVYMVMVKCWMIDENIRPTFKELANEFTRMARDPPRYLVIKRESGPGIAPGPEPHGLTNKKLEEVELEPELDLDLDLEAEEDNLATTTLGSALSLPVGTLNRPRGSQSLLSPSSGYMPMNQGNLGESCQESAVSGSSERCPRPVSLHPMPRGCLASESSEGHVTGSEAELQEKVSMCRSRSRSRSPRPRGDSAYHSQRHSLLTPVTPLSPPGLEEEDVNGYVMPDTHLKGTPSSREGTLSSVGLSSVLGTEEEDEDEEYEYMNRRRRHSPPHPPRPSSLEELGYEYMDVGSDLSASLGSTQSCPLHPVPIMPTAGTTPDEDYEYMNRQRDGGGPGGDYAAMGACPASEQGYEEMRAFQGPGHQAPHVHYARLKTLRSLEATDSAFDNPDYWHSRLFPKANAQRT

CN1C(=O)/C(=C2/C(=O)Nc3ccccc32)c2ccccc21 [meisoindigo, 3-(1,2-dihydro-2-oxo-3H-indol-3-ylidene)-1,3-dihydro-1-methyl-2H-indol-2-one]
c-myb gene expression [1]: downregulation | differentiation [1]: promotes differentiation | cell cycle specific effect [2]: G2/M arrest | binding with ERBB3 (ERBB3): significant binding | Bax protein expression (mitochondria): no change | Bcl-2 protein expression (mitochondria): no change | Bid protein expression (mitochondria): no change | Bcl-2 (primary AML cells): downregulation | p21 (primary AML cells): upregulation | p27 (primary AML cells): upregulation | efficacy in HT-29 colorectal xenografts [3]: effective | spleen size (AML NOD/SCID model; AML NOD/SCID model): dose-dependent spleen size reduction | efficacy in AML NOD/SCID model (AML NOD/SCID model; mouse, in vivo): effective | activity against U937 (U937): activity | activity against NB4 (NB4): activity | c-myc (HL-60 cells): decreases | β-catenin (HL-60 cells): decreases | efficacy in murine cancer models (murine cancer models): effective | efficacy in Lewis lung sarcoma (Lewis lung sarcoma): effective | activity against HL-60 (HL-60): activity | absorption ([4]; in vivo): rapidly absorbed | distribution ([4]; in vivo): widely distributed in the tissues | excretion ([4]; renal and biliary routes): renal excretion strongly predominating | single dose LD50 [5]: 3.9 g/kg | inhibits cytochrome P450 2C8 at (cytochrome P450 2C8): low micromolar concentrations | activity against primary AML (primary AML): activity | sex differences in metabolism [6]: no sex differences | metabolic routes ([6]; hepatic cytochrome P450 (CYP)-mediated): N-demethylation and mono ring hydroxylation | interspecies differences in metabolism ([6]; rats, pigs, and humans): no major interspecies differences | CD11b (CD11b): upregulation | human hepatic internal CL (Clint) [7]: ~83 mL/mg/kg | cleavage of PARP (HL-60 myeloid cells): stimulates the cleavage | cleavage of pro-caspase 3 (HL-60 myeloid cells): stimulates the cleavage | cleavage of pro-caspase 8 (HL-60 myeloid cells): stimulates the cleavage | cleavage of pro-caspase 9 (HL-60 myeloid cells): stimulates the cleavage | VEGF protection (VEGF): decreased | IC50 ([8]; cell lines and primary cancer cells): high-μM concentration range | active against cell lines and primary cancer cells [8]: active | metabolized by cytochrome P450 2C19 (cytochrome P450 2C19): metabolized | killing of malignant cell lines [9]: effective in killing | inhibition of GSK-3β at [10]: 5 to 50 nM | water solubility [11]: water-soluble | efficacy in Walker 256 carcino-sarcoma [12]: effective | Ahi-1 (Jurkat cells): upregulation | cell cycle specific effect (AML cell lines): arrest in G(O)/G1 | Bcl-2 (Bcl-2): suppression | activity against HUVEC (HUVEC [13]): activity | Bak (AML cells): upregulation | Bax (AML cells): upregulation | target organs [14]: liver and the gastrointestinal tract | VCAM-1 (VCAM-1): decreased | microtubule assembly (microtubule assembly): inhibition | p21 [15]: upregulation | p27 [15]: upregulation | complete hematologic response ([16]; 50-200 mg/d p.o.): 33 % of patients | partial hematologic response ([16]; 50-200 mg/d p.o.): 58 % of patients | reduction of leukocyte count (median) ([16]; 50-200 mg/d p.o.): 31 days | reduction of splenomegaly (median) ([16]; 50-200 mg/d p.o.): 25 days | effect with hydroxyurea ([16]; combination with hydroxyurea): synergistic effect | binding with NEK9 (NEK9): strongest binding | binding with STK25 (STK25): significant binding | mild nausea and vomiting ([17]; clinical trials, single agent or in combination with chemotherapy): 30% | cardiac, hepatic, or renal adverse effects ([17]; clinical trials): no cardiac, hepatic, or renal adverse effects | course of nausea and vomiting ([17]; clinical trials): spontaneously disappeared in two weeks | tolerability ([17]; several patient populations): well tolerated | apoptosis mechanism (K562 cells): novel caspase-dependent pathway | ECV304 apoptosis (ECV304 [18]): apoptosis | c-myc (K562 [19]): not | metabolized by UGT [20]: metabolized | DNA synthesis (W256 cells): inhibition | RNA synthesis (W256 cells): inhibition | activity against ECV304 (ECV304 [21]): activity | activity against K562 (K562 [22]): activity | inhibits cytochrome P450 1A2 at (cytochrome P450 1A2 [23]): low micromolar concentrations | target organs ([24]; dog): liver and the gastrointestinal tract | well tolerated dose ([24]; dogs, p.o. for 6 months): 10 mg/kg/day | metabolized by cytochrome P450 1A2 (cytochrome P450 1A2 [25]): metabolized | tubule formulation in HUVEC (HUVEC [26]): decreased
